Results taken from article PMC3822589 (Journal of Cellular and Molecular Medicine, 2013).
Where two headings read alike, the source gives them in different places.

Experiments:
[1] = system: Jak2V617F in HEK-V617F-STAT-Rep. cells; assay: pSTAT-ZsGreen reporter gene assay; format: cell-based; conditions: 24 h, read-out: IC50 values, STAT-reporter gene assay
HEL cells = assay: Cell proliferation assay; format: cell-based, human
[2] = system: Jak2V617F in γ2A-FRT-TI-Jak2V617F/STAT3-YFP cells; assay: STAT3-YFP translocation assay; format: cell-based; conditions: read-out: IC50 values, STAT3-YFP translocation assay
[3] = system: Phospho-STAT5 (P-STAT5) levels in HEL cells (Jak2V617F); assay: Western blot of phospho-STAT5 in HEL cells; format: cell-based, human; conditions: for IC50: mean ± SD
[4] = system: γ2A-FRT-TI-Jak2V617F/STAT3-YFP cells; assay: Nuclei size by confocal imaging and Cell Profiler; format: cell-based; conditions: 24 hrs; Cell Profiler
[5] = system: Jak2V617F phosphorylation (P-Jak2) in HEL cells; assay: Western blot of phospho-Jak2 in HEL cells; format: cell-based, human; conditions: 0.5, 1 or 5 μM, 3 hrs
Jak2 = Jak2 (Homo sapiens, UniProt O60674); assay: Jak2 in vitro kinase assay; format: biochemical; conditions: Caliper versus literature (Figure S5B)
[6] = system: P-STAT5 in BA/F3-EpoR-Jak2V617F cells; assay: Western blot of phospho-STAT5 in BA/F3-EpoR-Jak2V617F cells; format: cell-based, murine; conditions: 2.5 μM, 3 hrs
[7] = system: P-STAT5 in UKE-1 cells (Jak2V617F); assay: Western blot of phospho-STAT5 in UKE-1 cells; format: cell-based; conditions: 2.5 μM, 3 hrs

Sequence of Jak2 (O60674 whole entry): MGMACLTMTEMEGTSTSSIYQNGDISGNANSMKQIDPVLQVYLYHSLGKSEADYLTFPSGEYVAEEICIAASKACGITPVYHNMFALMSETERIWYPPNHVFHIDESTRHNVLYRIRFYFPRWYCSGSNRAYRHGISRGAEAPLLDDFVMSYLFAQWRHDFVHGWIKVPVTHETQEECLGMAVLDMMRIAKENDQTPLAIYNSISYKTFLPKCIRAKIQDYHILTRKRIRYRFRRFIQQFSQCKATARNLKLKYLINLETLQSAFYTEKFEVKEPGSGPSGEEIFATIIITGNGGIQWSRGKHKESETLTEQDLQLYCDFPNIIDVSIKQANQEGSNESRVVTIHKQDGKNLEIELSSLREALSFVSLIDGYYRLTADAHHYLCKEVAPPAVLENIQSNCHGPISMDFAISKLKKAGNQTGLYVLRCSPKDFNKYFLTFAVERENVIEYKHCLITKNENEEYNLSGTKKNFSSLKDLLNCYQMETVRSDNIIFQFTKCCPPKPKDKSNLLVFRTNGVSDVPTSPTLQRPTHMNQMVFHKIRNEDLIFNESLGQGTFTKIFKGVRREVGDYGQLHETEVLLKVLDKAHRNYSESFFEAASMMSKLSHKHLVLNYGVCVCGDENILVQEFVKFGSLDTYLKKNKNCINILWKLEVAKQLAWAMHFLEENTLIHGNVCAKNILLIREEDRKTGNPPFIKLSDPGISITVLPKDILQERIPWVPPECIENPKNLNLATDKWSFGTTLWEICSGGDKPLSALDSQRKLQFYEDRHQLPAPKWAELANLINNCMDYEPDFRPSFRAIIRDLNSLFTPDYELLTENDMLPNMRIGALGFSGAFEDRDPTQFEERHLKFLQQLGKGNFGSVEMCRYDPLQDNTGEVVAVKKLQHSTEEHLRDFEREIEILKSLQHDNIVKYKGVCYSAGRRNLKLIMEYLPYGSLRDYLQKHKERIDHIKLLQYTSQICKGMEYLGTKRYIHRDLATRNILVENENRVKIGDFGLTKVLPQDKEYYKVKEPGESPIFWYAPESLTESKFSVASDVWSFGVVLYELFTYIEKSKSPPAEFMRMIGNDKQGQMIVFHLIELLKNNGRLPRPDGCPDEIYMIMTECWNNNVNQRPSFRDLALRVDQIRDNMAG

Structure (SMILES): N#CCNC(=O)c1ccc(-c2ccnc(Nc3ccc(N4CCOCC4)cc3)n2)cc1 [CYT387]
- IC50 [1]: 0.794 ± 0.007 µM
- effect on proliferation of HEL cells (HEL cells; 0.3 or 1 μM, 72 hrs): showed the same effects but were less efficient
- IC50 (HEL cells; Homo sapiens, HEL, 72 h, read-out: IC50 values, Proliferation assay): 1.18 ± 0.413 µM
- IC50 [2]: 0.459 ± 0.126 µM
- effect on phosphorylation of STAT5 (Western blot) ([3]; HEL cells, 0.5, 1 or 5 μM, 3 hrs): showed the same effects but were less efficient
- IC50 ([3]; Homo sapiens, HEL, read-out: IC50 values, WB (P-STAT5), HEL cells): ~0.6 µM
- IC50 ([3]; read-out: IC50 values, WB (P-STAT5), HEL cells): 0.633 ± 0.09 µM
- concentration at which nuclei size increases [4]: did not have this effect
- effect on phosphorylation of Jak2 [5]: increased phosphorylation of Jak2
- divergence between own and published in vitro kinase assay IC50 (Jak2): greater than 10 fold
- effect on phosphorylation of STAT5 (Western blot) [6]: efficiently decreased
- effect on phosphorylation of STAT5 (Western blot) [7]: efficiently decreased
